# According to patent US20260234157A1, “COMPOUND AND METHOD FOR TARGETED DEGRADATION OF ANDROGEN RECEPTOR” (Gan & Lee Pharmaceuticals Co., Ltd., priority 2023, published 2026):
# Where a chain is given by its changes, count along the chain named.
# Target: T1, AR protein (Homo sapiens, UniProt P10275, T878A)
# T1 construct: degradation activity of the compounds disclosed in the present disclosure on AR protein in LNCaP cells; host or cells: LNCaP FGC
# T1 sequence (P10275 1-920 T878A): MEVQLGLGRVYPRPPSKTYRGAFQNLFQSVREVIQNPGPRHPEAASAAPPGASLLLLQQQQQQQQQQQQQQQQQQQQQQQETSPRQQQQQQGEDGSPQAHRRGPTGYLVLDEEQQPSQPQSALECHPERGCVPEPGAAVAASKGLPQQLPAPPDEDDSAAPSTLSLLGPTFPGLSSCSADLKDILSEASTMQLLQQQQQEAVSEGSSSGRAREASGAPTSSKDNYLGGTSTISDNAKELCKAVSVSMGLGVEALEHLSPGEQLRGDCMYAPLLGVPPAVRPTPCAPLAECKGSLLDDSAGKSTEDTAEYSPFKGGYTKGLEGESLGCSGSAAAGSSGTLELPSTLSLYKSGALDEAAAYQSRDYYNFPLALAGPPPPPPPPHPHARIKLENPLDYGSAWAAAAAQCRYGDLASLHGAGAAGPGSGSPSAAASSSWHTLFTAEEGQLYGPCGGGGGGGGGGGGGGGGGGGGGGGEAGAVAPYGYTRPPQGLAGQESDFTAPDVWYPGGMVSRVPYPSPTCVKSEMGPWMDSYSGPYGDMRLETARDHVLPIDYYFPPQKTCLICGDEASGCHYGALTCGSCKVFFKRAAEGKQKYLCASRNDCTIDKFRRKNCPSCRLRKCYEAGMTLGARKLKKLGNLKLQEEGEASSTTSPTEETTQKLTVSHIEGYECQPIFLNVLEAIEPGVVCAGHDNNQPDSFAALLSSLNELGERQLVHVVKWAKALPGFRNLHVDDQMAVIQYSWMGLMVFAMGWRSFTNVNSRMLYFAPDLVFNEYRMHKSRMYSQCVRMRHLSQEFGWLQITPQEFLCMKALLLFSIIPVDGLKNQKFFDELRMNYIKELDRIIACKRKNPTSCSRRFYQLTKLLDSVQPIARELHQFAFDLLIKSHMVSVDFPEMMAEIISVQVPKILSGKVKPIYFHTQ
# Assay: Degradation of AR protein in LNCaP cells (Western blot)
# Type: cell-based
# Conditions: LNCaP cells, compound 10 nM, 8 hours, Western blot grayscale, GAPDH internal reference; read-out: Degradation rates of the AR protein in LNCaP cells, 10 nM (%)
# How it was run: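 AR assessed by SDS-PAGE/Western blot with infrared imaging; band greyscale normalised to GAPDH gave percent degradation.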
row,SMILES,inhibition at 0.01 µM [%]
1,N#Cc1ccc(O[C@H]2CC[C@H](NC(=O)c3ccc(N4CCC(C#N)(CN5CCC6(CC5)COc5c6ccc6c5C(=O)N(C5CCC(=O)NC5=O)C6=O)CC4)nn3)CC2)cc1C(F)(F)F (stereo partly drawn) [Compound 228],30
2,COc1cc(O[C@H]2CC[C@H](NC(=O)c3ccc(N4CCC(C#N)(CN5CCC6(CC5)COc5c6ccc6c5C(=O)N(C5CCC(=O)NC5=O)C6=O)CC4)nn3)CC2)ccc1C#N (stereo partly drawn) [Compound 229],49
3,COc1cc(O[C@H]2CC[C@H](NC(=O)c3ccc(N4CCC(CN5CC6(CCc7cc8c(cc7O6)C(=O)N(C6CCC(=O)NC6=O)C8=O)C5)(OC)CC4)nn3)CC2)ccc1C#N (stereo partly drawn) [Compound 231],31
4,N#Cc1ccc(O[C@H]2CC[C@H](NC(=O)c3ccc(N4CCN(C(=O)CN5CCC6(CC5)COc5c6ccc6c5CN(C5CCC(=O)NC5=O)C6=O)CC4)nn3)CC2)cc1Cl (stereo partly drawn) [Compound 233],49
5,COc1cc(O[C@H]2C(C)(C)[C@H](NC(=O)c3ccc(N4CCC(CN5CCC6(CC5)COc5c6ccc6c5C(=O)N(C5CCC(=O)NC5=O)C6=O)CC4)cc3)C2(C)C)ccc1C#N (stereo partly drawn) [Compound 234],58
6,N#Cc1ccc(O[C@H]2CC[C@H](NC(=O)c3ccc(C#CC4CCC(N5CCC6(CC5)COc5c6ccc6c5CN(C5CCC(=O)NC5=O)C6=O)CC4)nc3)CC2)cc1Cl (stereo partly drawn) [Compound 235],39

# Same assay, conditions: LNCaP cells, compound 100 nM, 8 hours, Western blot grayscale, GAPDH internal reference; read-out: Degradation rates of the AR protein in LNCaP cells, 100 nM (%)
row,SMILES,inhibition at 0.1 µM [%]
1,N#Cc1ccc(O[C@H]2CC[C@H](NC(=O)c3ccc(N4CCC(C#N)(CN5CCC6(CC5)COc5c6ccc6c5C(=O)N(C5CCC(=O)NC5=O)C6=O)CC4)nn3)CC2)cc1C(F)(F)F (stereo partly drawn) [Compound 228],56
2,COc1cc(O[C@H]2CC[C@H](NC(=O)c3ccc(N4CCC(C#N)(CN5CCC6(CC5)COc5c6ccc6c5C(=O)N(C5CCC(=O)NC5=O)C6=O)CC4)nn3)CC2)ccc1C#N (stereo partly drawn) [Compound 229],59
3,COc1cc(O[C@H]2CC[C@H](NC(=O)c3ccc(N4CCC(CN5CC6(CCc7cc8c(cc7O6)C(=O)N(C6CCC(=O)NC6=O)C8=O)C5)(OC)CC4)nn3)CC2)ccc1C#N (stereo partly drawn) [Compound 231],28
4,N#Cc1ccc(O[C@H]2CC[C@H](NC(=O)c3ccc(N4CCN(C(=O)CN5CCC6(CC5)COc5c6ccc6c5CN(C5CCC(=O)NC5=O)C6=O)CC4)nn3)CC2)cc1Cl (stereo partly drawn) [Compound 233],62
5,COc1cc(O[C@H]2C(C)(C)[C@H](NC(=O)c3ccc(N4CCC(CN5CCC6(CC5)COc5c6ccc6c5C(=O)N(C5CCC(=O)NC5=O)C6=O)CC4)cc3)C2(C)C)ccc1C#N (stereo partly drawn) [Compound 234],81
6,N#Cc1ccc(O[C@H]2CC[C@H](NC(=O)c3ccc(C#CC4CCC(N5CCC6(CC5)COc5c6ccc6c5CN(C5CCC(=O)NC5=O)C6=O)CC4)nc3)CC2)cc1Cl (stereo partly drawn) [Compound 235],36

# Target: T2, AR protein (Homo sapiens, UniProt P10275)
# T2 construct: degradation activity of the compounds disclosed in the present disclosure on AR protein in VCaP cells; host or cells: VCaP
# T2 sequence (P10275 1-920): T1 sequence (P10275 1-920 T878A) with A878T
# Assay: Degradation of AR protein in VCaP cells (Western blot)
# Type: cell-based
# Conditions: compound at 10 nM, 8 hours, read-out: Degradation rate of the AR protein in VCaP cells, 10 nM (%)
# How it was run: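 VCaP cells treated with compound alongside solvent controls for 8 h, then lysed in RIPA and protein quantified by BCA. AR detected by SDS-PAGE/Western blot with infrared imaging. Degradation rate calculated from band grayscale, with GAPDH as internal reference.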
row,SMILES,inhibition at 0.01 µM [%]
1,N#Cc1ccc(O[C@H]2CC[C@H](NC(=O)c3ccc(N4CCC(C#N)(CN5CCC6(CC5)COc5c6ccc6c5C(=O)N(C5CCC(=O)NC5=O)C6=O)CC4)nn3)CC2)cc1C(F)(F)F (stereo partly drawn) [Compound 228],-9
2,COc1cc(O[C@H]2CC[C@H](NC(=O)c3ccc(N4CCC(C#N)(CN5CCC6(CC5)COc5c6ccc6c5C(=O)N(C5CCC(=O)NC5=O)C6=O)CC4)nn3)CC2)ccc1C#N (stereo partly drawn) [Compound 229],33
3,COc1cc(O[C@H]2CC[C@H](NC(=O)c3ccc(N4CCC(CN5CC6(CCc7cc8c(cc7O6)C(=O)N(C6CCC(=O)NC6=O)C8=O)C5)(OC)CC4)nn3)CC2)ccc1C#N (stereo partly drawn) [Compound 231],11
4,N#Cc1ccc(O[C@H]2CC[C@H](NC(=O)c3ccc(N4CCN(C(=O)CN5CCC6(CC5)COc5c6ccc6c5CN(C5CCC(=O)NC5=O)C6=O)CC4)nn3)CC2)cc1Cl (stereo partly drawn) [Compound 233],74
5,COc1cc(O[C@H]2C(C)(C)[C@H](NC(=O)c3ccc(N4CCC(CN5CCC6(CC5)COc5c6ccc6c5C(=O)N(C5CCC(=O)NC5=O)C6=O)CC4)cc3)C2(C)C)ccc1C#N (stereo partly drawn) [Compound 234],35
6,N#Cc1ccc(O[C@H]2CC[C@H](NC(=O)c3ccc(C#CC4CCC(N5CCC6(CC5)COc5c6ccc6c5CN(C5CCC(=O)NC5=O)C6=O)CC4)nc3)CC2)cc1Cl (stereo partly drawn) [Compound 235],35

# Same assay, conditions: compound at 100 nM, 8 hours, read-out: Degradation rate of the AR protein in VCaP cells, 100 nM (%)
row,SMILES,inhibition at 0.1 µM [%]
1,N#Cc1ccc(O[C@H]2CC[C@H](NC(=O)c3ccc(N4CCC(C#N)(CN5CCC6(CC5)COc5c6ccc6c5C(=O)N(C5CCC(=O)NC5=O)C6=O)CC4)nn3)CC2)cc1C(F)(F)F (stereo partly drawn) [Compound 228],18
2,COc1cc(O[C@H]2CC[C@H](NC(=O)c3ccc(N4CCC(C#N)(CN5CCC6(CC5)COc5c6ccc6c5C(=O)N(C5CCC(=O)NC5=O)C6=O)CC4)nn3)CC2)ccc1C#N (stereo partly drawn) [Compound 229],73
3,COc1cc(O[C@H]2CC[C@H](NC(=O)c3ccc(N4CCC(CN5CC6(CCc7cc8c(cc7O6)C(=O)N(C6CCC(=O)NC6=O)C8=O)C5)(OC)CC4)nn3)CC2)ccc1C#N (stereo partly drawn) [Compound 231],63
4,N#Cc1ccc(O[C@H]2CC[C@H](NC(=O)c3ccc(N4CCN(C(=O)CN5CCC6(CC5)COc5c6ccc6c5CN(C5CCC(=O)NC5=O)C6=O)CC4)nn3)CC2)cc1Cl (stereo partly drawn) [Compound 233],87
5,COc1cc(O[C@H]2C(C)(C)[C@H](NC(=O)c3ccc(N4CCC(CN5CCC6(CC5)COc5c6ccc6c5C(=O)N(C5CCC(=O)NC5=O)C6=O)CC4)cc3)C2(C)C)ccc1C#N (stereo partly drawn) [Compound 234],72
6,N#Cc1ccc(O[C@H]2CC[C@H](NC(=O)c3ccc(C#CC4CCC(N5CCC6(CC5)COc5c6ccc6c5CN(C5CCC(=O)NC5=O)C6=O)CC4)nc3)CC2)cc1Cl (stereo partly drawn) [Compound 235],76

# Tested on: LNCaP FGC cells
# Assay: Inhibition of proliferation of LNCaP cells (WST-8)
# Type: cell-based
# Conditions: Homo sapiens, LNCaP, 96 h, LNCaP FGC cells, 96 hours, WST-8 absorbance at 450 nm; read-out: IC50 for inhibiting the proliferation of LNCaP cells
# Protocol: The cells were cultured in a cell culture incubator with 5% CO2 at 37° C. overnight. […] On the sixth day, 96 well plates were taken out, and 20 μL of WST-8 (Beytime, C0040) reagent was added to each well.
row,SMILES,IC50 [nM]
1,N#Cc1ccc(O[C@H]2CC[C@H](NC(=O)c3ccc(N4CCC(C#N)(CN5CCC6(CC5)COc5c6ccc6c5C(=O)N(C5CCC(=O)NC5=O)C6=O)CC4)nn3)CC2)cc1C(F)(F)F (stereo partly drawn) [Compound 228],2290
2,COc1cc(O[C@H]2CC[C@H](NC(=O)c3ccc(N4CCC(C#N)(CN5CCC6(CC5)COc5c6ccc6c5C(=O)N(C5CCC(=O)NC5=O)C6=O)CC4)nn3)CC2)ccc1C#N (stereo partly drawn) [Compound 229],330
3,COc1cc(O[C@H]2CC[C@H](NC(=O)c3ccc(N4CCC(CN5CC6(CCc7cc8c(cc7O6)C(=O)N(C6CCC(=O)NC6=O)C8=O)C5)(OC)CC4)nn3)CC2)ccc1C#N (stereo partly drawn) [Compound 231],3710
4,N#Cc1ccc(O[C@H]2CC[C@H](NC(=O)c3ccc(N4CCN(C(=O)CN5CCC6(CC5)COc5c6ccc6c5CN(C5CCC(=O)NC5=O)C6=O)CC4)nn3)CC2)cc1Cl (stereo partly drawn) [Compound 233],34300
5,COc1cc(O[C@H]2C(C)(C)[C@H](NC(=O)c3ccc(N4CCC(CN5CCC6(CC5)COc5c6ccc6c5C(=O)N(C5CCC(=O)NC5=O)C6=O)CC4)cc3)C2(C)C)ccc1C#N (stereo partly drawn) [Compound 234],270
6,N#Cc1ccc(O[C@H]2CC[C@H](NC(=O)c3ccc(C#CC4CCC(N5CCC6(CC5)COc5c6ccc6c5CN(C5CCC(=O)NC5=O)C6=O)CC4)nc3)CC2)cc1Cl (stereo partly drawn) [Compound 235],840

# Tested on: VCaP cells
# Assay: Inhibition of proliferation of VCaP cells (WST-8)
# Type: cell-based
# Conditions: Homo sapiens; VCaP cells, 168 hours, WST-8 absorbance at 450 nm; read-out: IC50 for inhibiting the proliferation of VCaP cells
# How it was run: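 VCaP FGC cells, 15000 per well in DMEM with 10% FBS, were cultured at 37° C, 5% CO2. On day nine, WST-8 reagent was added to read proliferation.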
row,SMILES,IC50 [nM]
1,N#Cc1ccc(O[C@H]2CC[C@H](NC(=O)c3ccc(N4CCC(C#N)(CN5CCC6(CC5)COc5c6ccc6c5C(=O)N(C5CCC(=O)NC5=O)C6=O)CC4)nn3)CC2)cc1C(F)(F)F (stereo partly drawn) [Compound 228],470
2,COc1cc(O[C@H]2CC[C@H](NC(=O)c3ccc(N4CCC(C#N)(CN5CCC6(CC5)COc5c6ccc6c5C(=O)N(C5CCC(=O)NC5=O)C6=O)CC4)nn3)CC2)ccc1C#N (stereo partly drawn) [Compound 229],15
3,COc1cc(O[C@H]2CC[C@H](NC(=O)c3ccc(N4CCC(CN5CC6(CCc7cc8c(cc7O6)C(=O)N(C6CCC(=O)NC6=O)C8=O)C5)(OC)CC4)nn3)CC2)ccc1C#N (stereo partly drawn) [Compound 231],5120
4,N#Cc1ccc(O[C@H]2CC[C@H](NC(=O)c3ccc(N4CCN(C(=O)CN5CCC6(CC5)COc5c6ccc6c5CN(C5CCC(=O)NC5=O)C6=O)CC4)nn3)CC2)cc1Cl (stereo partly drawn) [Compound 233],43
5,COc1cc(O[C@H]2C(C)(C)[C@H](NC(=O)c3ccc(N4CCC(CN5CCC6(CC5)COc5c6ccc6c5C(=O)N(C5CCC(=O)NC5=O)C6=O)CC4)cc3)C2(C)C)ccc1C#N (stereo partly drawn) [Compound 234],36
6,N#Cc1ccc(O[C@H]2CC[C@H](NC(=O)c3ccc(C#CC4CCC(N5CCC6(CC5)COc5c6ccc6c5CN(C5CCC(=O)NC5=O)C6=O)CC4)nc3)CC2)cc1Cl (stereo partly drawn) [Compound 235],2
